Test results as given in ChEMBL document CHEMBL2424595, “Substituted pyrrolo[2,3-d]pyrimidines as Cryptosporidium hominis thymidylate synthase inhibitors” (Bioorg Med Chem Lett, 2013).
Calls of active or inactive are those of the source. The rule behind the calls is not given here.

Assays:
[1] = Inhibition of Cryptosporidium hominis thymidylate synthase
[2] = system: Cryptosporidium hominis; assay: Inhibition of Cryptosporidium hominis DHFR
[3] = target: Thymidylate synthase (Homo sapiens) (UniProt P04818); assay: Inhibition of human thymidylate synthase
Thymidylate synthase (Homo sapiens), sequence (P04818 2-313 limits assumed): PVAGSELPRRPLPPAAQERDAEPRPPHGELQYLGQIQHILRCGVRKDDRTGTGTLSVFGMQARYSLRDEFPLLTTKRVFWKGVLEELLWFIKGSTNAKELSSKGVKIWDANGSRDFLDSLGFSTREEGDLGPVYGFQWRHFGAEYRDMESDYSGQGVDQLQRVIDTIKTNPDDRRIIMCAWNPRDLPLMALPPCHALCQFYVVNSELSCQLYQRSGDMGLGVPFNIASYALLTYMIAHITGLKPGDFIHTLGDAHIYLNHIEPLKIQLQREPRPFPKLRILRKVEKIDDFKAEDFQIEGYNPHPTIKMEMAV

SMILES | IC50 [1] | inhibition [2] | inhibition [3] | Ki [1]
Nc1nc2[nH]cc(CCc3ccc(C(=O)N[C@@H](CCC(=O)O)C(=O)O)cc3)c2c(=O)[nH]1 [PEMETREXED] | 2090 nM |  |  | 
Nc1nc2[nH]cc(Cc3ccc(C(=O)N[C@@H](CCC(=O)O)C(=O)O)s3)c2c(=O)[nH]1 | 30 nM | Active | Active | 
Cc1[nH]c2nc(N)[nH]c(=O)c2c1Sc1ccc(C(=O)N[C@@H](CCC(=O)O)C(=O)O)c(Cl)c1 | 10 nM | Active | Active | 8.83 nM
Nc1nc2[nH]cc(Cc3ccc(C(=O)N[C@@H](CCC(=O)O)C(=O)O)cc3)c2c(=O)[nH]1 | 380 nM |  |  | 
Nc1nc2[nH]cc(CCCCCc3ccc(C(=O)N[C@@H](CCC(=O)O)C(=O)O)cc3)c2c(=O)[nH]1 | 31100 nM |  |  | 
Nc1nc2[nH]cc(CCCc3ccc(C(=O)N[C@@H](CCC(=O)O)C(=O)O)cc3)c2c(=O)[nH]1 | 2440 nM |  |  | 
